Assay results from patent US12029682B2, “Spray ejector mechanisms and devices providing charge isolation and controllable droplet charge, and low dosage volume ophthalmic administration” (EYENOVIA, INC., priority 2012, dated 2024).

What was measured:
glaucomatous beagles = experiment: Pupil diameter (PD), Jameson Caliper, in glaucomatous beagles; type: in vivo, beagle dog; conditions: for PD: spray ejector device, one dog
Method: (§1) One glaucomatous beagle dog (female, aged 3 years) from the University of Florida MacKay Colony of Glaucomatous Beagles was chosen for this study. The animal was rested a minimum of one week before starting the study. Prior to the commencement of the study, the animal was assigned one eye to receive 1.5 μl of 0.005% latanoprost and the contralateral eye to remain untreated as a control. The basic measurement protocol was followed at all times and performed by the same operator. PD was measured via Jameson Caliper (mm horizontally). IOP was measured using a TonoVet instrument with clean probe (iCare). IOP and PD were measured at time 0, 1, 2, 4, 7 and 18 hours daily for two days. Immediately after the time 0 measurement, the animal received 1.5 μl of 0.005% latanoprost in its assigned eye with a spray device. The contralateral eye was left untreated. The spray device was checked for accuracy before and after every use, and required a 10% delivered dose accuracy in pretreatment. Standard measurements continued throughout each day at time 1, 2, 4, 7 and 18 hours. Possible endpoints included, but were not limited to, excessive ocular irritation, ocular damage, and other illness or injury. No statistical crossover was utilized for this study.
as §1, with “study.” for “study. The animal was rested a minimum of one week before starting the study.”, “receive 3.0” for “receive 1.5”, “0 measurements,” for “0 measurement,”, “animal was administered 3.0” for “animal received 1.5”, “eye using” for “eye with”, “spray ejector” for “spray”
All animals were rested for a minimum of one week before starting the trials. IOP and pupil diameter (PD) were measured 5 times (at 0, 1, 2, 4, and 7 hours) daily for four days (study days 1-4) to establish initial baseline levels. The basic measurement protocol was followed at all times and performed by the same operator. PD was measured via Jameson Caliper (mm horizontally). IOP was measured with a TonoVet instrument with clean probe (iCare). After three rest days, one eye was randomly assigned to receive 9 μl of 0.005% latanoprost delivered via a spray ejector device, and the contralateral eye was administered traditional latanoprost from a traditional eyedropper container (26-30 μl).
On study days 5-9, IOP and PD measurements were taken at approximately 0900 h (time 0). Immediately after time 0 measurements, each animal received a once-daily dose of 9 μl of generic 0.005% latanoprost in its assigned eye via the spray ejector device. […]

[1] = Pharmacokinetic study: acid of latanoprost in aqueous humor (AH) by HPLC; type: in vivo, beagle dog; conditions: delivered by the spray ejector device
Method: Eight normal laboratory beagles were chosen for this study. Conditions for inclusion included normal overall health and normal ophthalmic state as determined by gross eye exam by a boarded veterinary ophthalmologist. Pre- and post-dosing mass deposition calibrations of the spray device were consistently within 10% of the intended dose of 9 μl. A 9.0 μl dose of a commercially available prostaglandin pro-drug, latanoprost, was instilled topically in two eyes of each of eight normotensive beagle dogs using the spray ejector device. Levels of the acid of latanoprost were measured in aqueous humor (AH) obtained by aqueocentesis over a 7-hour period each day for 5 days. This protocol was repeated for latanoprost 0.005% delivered by eyedropper (average dose 26 μl).
All dogs received a washout and acclimation period of two weeks. In Week 1, all animals were assigned to a group, with two animals each in Groups 1, 2, 4, and 7. […] IOP and PD were measured while the topical anesthetic took effect. […]
Week 3 followed the Week 1 protocol, with the substitution of eyedropper-delivered 0.005% latanoprost at an average dose of 26 μl at time 0. […] All AH samples were frozen to −80° C., stored overnight on dry ice, and then analyzed for the acid of latanoprost using a latanoprost-specific HPLC methodology. […]

With `CC(C)OC(=O)CCC/C=C\C[C@@H]1[C@@H](CC[C@@H](O)CCc2ccccc2)[C@H](O)C[C@@H]1O` [latanoprost] the PD (glaucomatous beagles; 1.5 μl of 0.005%, by hour 1 through hour 7) was 0 mm, the PD (glaucomatous beagles; 3.0 μl of 0.005%, by hour 1 throughout hour 7) was 0 mm and the “time to return to normal PD” value (glaucomatous beagles; one drop of 0.005% by eyedropper) was no more than 24 h. The “time at which the iris reached pinpoint status” value (glaucomatous beagles; traditional treatment, one drop by eyedropper, remained for the seven hours of monitoring) was 1 h, the “time at which the iris reached pinpoint status (maximum miosis)” value (glaucomatous beagles; two 6 μl doses via ejector device, remained for the seven hours of monitoring) was 1 h and the “absorption rate vs eyedropper-delivered drug in higher doses” value [1] was “three-fold”.
